What all share (assay type): cell-based
Series [1] concerns the target T1, Indoleamine 2,3-dioxygenase 2 (Mus musculus) (UniProt Q8R0V5).
T1 sequence (whole entry): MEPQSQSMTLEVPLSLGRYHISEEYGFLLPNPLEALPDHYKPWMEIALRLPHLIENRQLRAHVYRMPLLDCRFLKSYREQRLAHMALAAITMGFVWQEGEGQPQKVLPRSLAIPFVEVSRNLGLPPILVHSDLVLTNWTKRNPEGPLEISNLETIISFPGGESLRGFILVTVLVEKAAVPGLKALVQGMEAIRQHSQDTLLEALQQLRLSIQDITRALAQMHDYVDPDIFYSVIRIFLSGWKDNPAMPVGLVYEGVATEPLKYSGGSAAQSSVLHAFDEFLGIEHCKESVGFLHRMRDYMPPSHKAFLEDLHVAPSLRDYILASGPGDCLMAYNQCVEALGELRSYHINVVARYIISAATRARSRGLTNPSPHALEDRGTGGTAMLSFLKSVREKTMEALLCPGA
The series can be described thus: Inhibition of mouse IDO2 transfected in HEK293T cells assessed as kynurenine formation using L-Trp as substrate at 200 uM after 24 hrs.

In series [2] the target is T2, Indoleamine 2,3-dioxygenase 1 (Homo sapiens, UniProt P14902). The series can be described thus: Inhibition of human IDO1 transfected in HEK293T cells assessed as kynurenine formation using L-Trp as substrate at 200 uM after 7 hrs.
Target sequence in this assay (P14902 whole entry, looked up): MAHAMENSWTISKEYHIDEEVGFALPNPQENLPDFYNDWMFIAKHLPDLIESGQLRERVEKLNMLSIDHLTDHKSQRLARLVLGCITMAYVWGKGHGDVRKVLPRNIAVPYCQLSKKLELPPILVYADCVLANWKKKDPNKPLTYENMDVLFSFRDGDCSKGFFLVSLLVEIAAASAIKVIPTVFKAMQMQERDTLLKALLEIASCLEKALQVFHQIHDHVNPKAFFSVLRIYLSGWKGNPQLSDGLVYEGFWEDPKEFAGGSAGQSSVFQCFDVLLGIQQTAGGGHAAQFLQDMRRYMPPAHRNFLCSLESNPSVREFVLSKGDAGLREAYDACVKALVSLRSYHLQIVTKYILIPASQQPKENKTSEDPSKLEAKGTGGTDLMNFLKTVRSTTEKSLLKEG
For the next series, the system named is HEK-293T. The series can be described thus: Cytotoxicity against HEK293T cells transfected with human IDO1 or mouse IDO2 assessed as apoptotic cells at 200 uM after 7 hrs or 24 hrs by DAPI staining based cytometric analysis relative to control.
The target in series [3] is T2, Indoleamine 2,3-dioxygenase 1. Briefly: Inhibition of human IDO1 transfected in HEK293T cells assessed as kynurenine formation using L-Trp as substrate after 7 hrs.
Target sequence in this assay (P14902 whole entry): as the sequence (P14902 whole entry, looked up) above
A short description of series [4]: Selectivity ratio of IC50 for human IDO1 to IC50 for mouse IDO2 transfected in HEK293T cells.
Series [5] addresses T3, Indoleamine 2,3-dioxygenase 2 (Mus musculus, UniProt Q8R0V5).
T3 sequence (Q8R0V5 whole entry): T1 sequence (whole entry)
Briefly: Inhibition of mouse IDO2 transfected in HEK293T cells assessed as kynurenine formation using L-Trp as substrate after 24 hrs.

Each structure is given as a SMILES string.

In the case of `Oc1ccccc1-c1c[nH]nn1`, the values for the inhibition in series [1] and in series [2] were 14% and 96%, respectively. In addition, the Activity with HEK-293T is listed as 0.2%.
In the case of `Clc1ccc(-c2c[nH]nn2)cc1`, the inhibition (commonly the percentage by which the read-out fell short of the control) in series [1] is 27%; in series [2] it was 9%.
For the compound `Clc1cccc(-c2c[nH]nn2)c1CCC1CCCC1`, the inhibition in series [1] is 90%; in series [2], 71%. The Activity with HEK-293T was found to be 21.5%.
Regarding `c1ccc(CCc2ccccc2-c2c[nH]nn2)cc1`, the IC50 (in general, the midpoint of a concentration-inhibition curve) was found to be 100 µM in series [3] and 51 µM in series [5]. Also, the Ratio IC50 in series [4] stood at 2. In addition, the inhibition in series [1] came out at 90%; in series [2], 58%. The Activity with HEK-293T was determined as 3.7%.
As to `c1ccc(-c2cnn[nH]2)cc1`, the inhibition in series [1] was found to be 1%; in series [2] it was 93%. Further, the Activity with HEK-293T came to 5.3%.
For `c1ccc(-c2c[nH]nn2)c(CCC2CCCC2)c1` the same measures were 89%, 74% and 35.1%.
For `Clc1cccc(-c2c[nH]nn2)c1/C=C/C1CCCCC1`, the IC50 in series [3] and in series [5] was 110 µM in each case. Also, the Ratio IC50 in series [4] came out at 1. Also, the inhibition in series [1] was found to be 65%; in series [2], 56%. In addition, the Activity with HEK-293T came out at 5.4%.
In the case of `Clc1cccc(-c2c[nH]nn2)c1`, the inhibition was 2% in series [1] and 95% in series [2]. For the same compound, in the series on HEK-293T, the Activity is listed as 0%.
Regarding `OC(Cc1ccccc1-c1c[nH]nn1)c1ccccc1` (configuration not stated), the inhibition in series [1] was 47%; in series [2] it was 28%. In addition, the Activity in the series with HEK-293T turned out to be 0%.
Take `Oc1ccc(Cl)cc1-c1c[nH]nn1`: the inhibition in series [1] came out at 43%; in series [2], 98%. The IC50 in series [5] stood at 120 µM. Further, the Activity in the series with HEK-293T was determined as 0%.
Take `c1ccc(-c2c[nH]nn2)c(CCC2CCCCC2)c1`: the inhibition in series [1] amounted to 95%; in series [2] it was 77%. In addition, in the series with HEK-293T, the Activity stood at 72.3%.
`c1ccc(Cc2ccccc2-c2c[nH]nn2)cc1`: the IC50 came to 105 µM in series [3] and 70 µM in series [5]. Moreover, the Ratio IC50 in series [4] amounted to 1.5. Also, the inhibition was 80% in series [1] and 84% in series [2]. The Activity with HEK-293T is 0%.
For the compound `Clc1cccc(-c2c[nH]nn2)c1/C=C/c1ccccc1`, the inhibition worked out at 97% in series [1] and 32% in series [2]. In the series with HEK-293T, the Activity amounted to 57.9%.
Regarding `Clc1ccccc1-c1c[nH]nn1`, in the series on HEK-293T, the Activity is 0.2%.
With `Clc1ccc(CCc2ccccc2)c(-c2c[nH]nn2)c1`, the inhibition in series [1] was determined as 97%; in series [2], 70%. Further, in the series with HEK-293T, the Activity turned out to be 51.6%.
With `Clc1ccccc1-c1cnn[nH]1`, the inhibition was found to be 4% in series [1] and 83% in series [2].
With `Clc1cccc(-c2c[nH]nn2)c1CCc1ccccc1`, the inhibition in series [1] is 94%; in series [2] it was 76%. Besides, in the series on HEK-293T, the Activity is on record as 70.8%.

Values taken from ChEMBL document CHEMBL4425176, “1,2,3-Triazoles as inhibitors of indoleamine 2,3-dioxygenase 2 (IDO2)” (Bioorg Med Chem Lett, 2016).
